Data reported in BigSolDB 2.1.

O=[N+]([O-])c1ccc(O)c2ncccc12
solubility (mole fraction)
Conditions	in acetic acid	in acetone	in acetonitrile	in ethanol	in ethyl acetate	in isopropanol	in methanol	in n-butanol	in n-propanol	in toluene
278.15 K	0.00224	0.00398	0.00113	0.000575	0.00339	0.0005	0.000443	0.000606	0.000562	0.00229
280.65 K	0.00239	0.00429	0.00124	0.000625	0.00369	0.000548	0.000486	0.000663	0.000608	0.00247
283.15 K	0.00259	0.00461	0.00137	0.000682	0.004	0.000605	0.000531	0.000726	0.000675	0.00269
285.65 K	0.0028	0.00498	0.00151	0.00075	0.00437	0.000672	0.000586	0.000797	0.000748	0.00293
288.15 K	0.00303	0.00538	0.00165	0.00082	0.00476	0.000741	0.000643	0.000867	0.000814	0.00317
290.65 K	0.00328	0.0058	0.0018	0.000901	0.00517	0.000816	0.000701	0.000961	0.000899	0.00345
293.15 K	0.00355	0.00624	0.00197	0.000988	0.00564	0.000897	0.000763	0.00105	0.00099	0.00377
295.65 K	0.00383	0.00668	0.00214	0.00108	0.0061	0.000974	0.00083	0.00116	0.00109	0.00408
298.15 K	0.00416	0.00721	0.00233	0.00118	0.00667	0.00107	0.000904	0.00128	0.00119	0.00444
300.65 K	0.00449	0.00773	0.00256	0.00128	0.00724	0.00118	0.000981	0.00139	0.00131	0.00481
303.15 K	0.00484	0.00831	0.00279	0.00139	0.00786	0.00129	0.00107	0.00153	0.00143	0.00518
305.65 K	0.0052	0.00888	0.00304	0.00152	0.00857	0.00141	0.00116	0.00166	0.00157	0.00562
308.15 K	0.00559	0.00956	0.00334	0.00166	0.00929	0.00154	0.00127	0.0018	0.0017	0.00609
310.65 K	0.00601	0.0103	0.00366	0.00182	0.01	0.00168	0.00138	0.00197	0.00186	0.0066
313.15 K	0.00649	0.0111	0.00403	0.00199	0.0109	0.00183	0.00149	0.00217	0.00204	0.00715
